From PMC11167338, “Exploring the impact of trifluoromethyl (–CF3) functional group on the anti-cancer activity of isoxazole-based molecules: design, synthesis, biological evaluation and molecular docking analysis” (RSC Advances, 2024)

How the values were obtained:
4T1 = test: MTT anti-proliferative assay on 4T1; type: cell-based, mouse; conditions: for IC50: Mus musculus, 4T1, MTT, 48 hours treatment, mean ± SD (n = 2)
Description: (§1) All synthesized molecules were tested for their anticancer activity using the MTT assay protocol against the murine mammary carcinoma cell line (4T1), the human breast cancer (MCF-7), and the prostatic small cell carcinoma (PC-3). These compounds were then assessed for their IC50 determination at various concentrations. According to this finding, all synthesized compounds have the ability to inhibit the proliferation of a variety of cancer cell lines. […] It is more biased for MCF-7 cells over other cancer cells tested. Further, we contemplated conducting additional research to assess their anti-cancer effectiveness and mechanism (Fig. 3).
(§2) The mouse triple-negative breast cancer cell line (4T1), a human luminal A breast cancer cell line (MCF-7), a human prostate cancer cell line (PC-3), and a normal human embryonic kidney cell line (HEK-293) were procured from the National Center for Cell Science (NCCS, Pune, India). Dulbecco's Modified Eagle Medium (DMEM) (Himedia Laboratories Pvt Ltd, Mumbai, India) was used to cultivate MCF-7, 4T1, PC-3, and HEK-293 cells. All the mentioned cell lines were cultured in Dulbecco's Modified Eagle Medium (DMEM) supplemented with 10% heat-inactivated fetal bovine serum (Himedia Laboratories Pvt Ltd, Mumbai, India) and 1% antibiotic (Pen strep: A001), Himedia Laboratories Pvt Ltd, Mumbai, India. Cells were grown in a humidified environment with 5% CO2 at 37 °C. The experiment was performed using the yellow dye MTT [3-(4,5-dimethylthiazol-2-yl)-2, 5-diphenyltetrazolium bromide].
(§3) The MTT assay protocol was used to determine the IC50 values of the final compounds against different types of cancer cell lines and their selectivity over normal human cell lines. Dilutions of various concentrations were made from the compounds' DMSO stock solutions in the appropriate media. With a control solution of less than 1% DMSO in the appropriate media, dilutions from 200 μM to 0.781 μM concentrations were prepared using the serial dilution method. Cells were subcultured in their respective complete media according to the ATCC protocol before being seeded on a sterile 96-well plate with around 100 μL per well and a cell density of about 1 × 10^4 cells per well and incubated overnight. The medium was aspirated the following day, and adherent cells were treated with the respective concentrations 200 μM to 0.781 μM. The cells were then cultured for 48 hours in presence of compounds in the growth medium. The medium was aspirated post-treatment, and 100 μL of a 5 mg mL^−1 MTT solution in phenol red-free media was added. This mixture was then incubated for around 3 hours to check for the production of formazan crystals. The MTT solution was withdrawn, and 150 μL of DMSO was added to the wells to dissolve the generated crystals. The absorbance was measured at 570 nm and 650 nm. The percent cell viability was calculated for the IC50 values using GraphPad Prism™ version 8.0.1, and the results were shown as a dose–response curve.

MCF-7 = test: MTT anti-proliferative assay on MCF-7; type: cell-based, human; conditions: for IC50: MTT, 48 hours treatment, mean ± SD (n = 2)
Description: as §1, §2, §3

PC-3 = test: MTT anti-proliferative assay on PC-3; type: cell-based, human; conditions: for IC50: Homo sapiens, PC-3, MTT, 48 hours treatment, mean ± SD (n = 2)
Description: as §1, §2, §3

HEK-293 = test: MTT cytotoxicity on normal HEK-293 cells; type: cell-based; conditions: Homo sapiens, HEK293, normal cell line, 48 hours treatment, mean ± SD (n = 2)
From the text: We also investigated their in vitro cytotoxicity against a normal human embryonic kidney (HEK-293) cell line to determine their IC50.
as §2, §3

MCF-7 cells [1] = test: Annexin-V/FITC-PI apoptosis assay (flow cytometry); type: cell-based, human; conditions: MCF-7, 48 h, at in vitro IC50
Description: Several studies have reported that anticancer drug molecules employ their cytotoxicity induced cell death via apoptotic pathways. […] These findings imply that the programmed cell death mechanism generated by the lead compound 2g causes considerable apoptosis in cancer cells.
In MCF-7 cells, an apoptosis assay was done using a TACs/Annexin V kit from Biolegend, USA. MCF-7 cells were seeded with a density of 5.0 × 10^4 cells per well in a flat-bottomed 12-well plate and allowed overnight for attachment. Following media aspiration, 48 hours of treatment with compound 2g and BG-45 at their in vitro IC50 values in MCF-7 cells were performed in triplicate. The cells were then trypsinized after being rinsed twice with ice-cold PBS. The trypsinized cells were then collected, centrifuged, and the obtained cell pellet was washed with ice-cold PBS before being resuspended in 100 μL of freshly prepared Annexin V reagent, which included 10 μL of 10× binding buffer, 1 μL of FITC, 10 μL of PI, and made up to 100 μL with double distilled water. Following a 30 minutes dark incubation period, these samples were diluted to 500 μL using 400 μL of 1× binding buffer. Following incubation, the samples were examined using flow cytometry (BDAria™ III, BD biosciences).

MCF-7 cells [2] = test: Intracellular ROS generation (DCFH-DA); type: cell-based, human; conditions: for Fluorescence intensity (DCFH-DA, ImageJ): MCF-7, 48 h, IC50 dose
From the text: This can result from the increased metabolic demands of rapidly dividing cancer cells and mitochondrial dysfunction. Elevated ROS levels can also damage DNA, contributing to genomic instability and the development of genetic mutations that drive cancer progression. Chemotherapy drugs, for example, can generate ROS as a byproduct of their mechanism of action, causing increase DNA damage and cell death in cancer cells. As a result, we investigated whether the compound 2g could cause ROS production within cancer cells.
The generation of reactive oxygen species in MCF-7 cells was investigated using the 2-7-dichlorodihydroflourescein diacetate (DCFH-DA) assay. The non-fluorescent DCFH-DA enters the cells, where cellular esterase cleaves off the acetyl groups to produce DCFH. ROS transform the molecule from DCFH to DCF, which produces green light. […] Following incubation, old medium was removed, and cells were treated with 10 μM DCFH-DA (S0033-Beyotime) in accordance with the recommended technique for 10 min at 37 °C in complete darkness. The intensity of fluorescence was then measured with a Laser Scanning Confocal Microscope (LSCM) DMI8 (Leica Microsystems, Germany) at 63× magnification at 485 nm and 535 nm for excitation and emission wavelengths. […] In the meantime, the increase in fluorescence intensity was determined in comparison to the control. Image J was used to calculate the relative fluorescence intensity (%). One-way ANOVA was used to determine significance, and the graph was created in GraphPad Prism™ version 8.0.1.

MCF-7 cells [3] = test: Nuclear staining assay (DAPI and AO); type: cell-based, human; conditions: MCF-7, IC50, 48 hours, compared to control and BG-45
Description: A nuclear staining assay was done using DAPI and AO as staining dyes to evaluate the phenomena of apoptosis in cancer cells under a laser scanning confocal microscope (LSCM). […] The fluorescence pattern in AO staining changed from green (normal cellular DNA) to orange (nicked cellular DNA).
To measure the degree of cancer cell disintegration, a nuclear staining experiment was performed in MCF-7 cells using the lead compound 2g and the reference compound BG-45. […] The 12-well plate was incubated for 48 hours after treatment. The cells were fixed with 4% paraformaldehyde and then stained with DAPI and acridine orange. The degree of nuclear staining was examined using a Laser Scanning Confocal Microscope (LSCM) DMI8 (Leica Microsystems, Germany) at 63× magnification. Image J was used to calculate the percentage apoptosis. One-way ANOVA was used to determine significance, and the graph was plotted in GraphPad Prism™ version 8.0.1.

MCF-7 cells [4] = test: Cell cycle analysis (PI, flow cytometry); type: cell-based, human; conditions: MCF-7, 48 hours, at IC50 concentration
Description: In addition to the apoptosis assay, the cell cycle progression of MCF-7 cells was also investigated using the compound 2g. The cell population at different cell cycle phases was assessed using flow cytometry. […] These findings highlight that the lead compound 2g specifically impacts cell cycle regulation in the early phase compared to control and standard compound-treated cells (Fig. 6).
Flow cytometry was used to study the cell cycle of compound 2g and BG-45 using the BDAria™ III, a BD biosciences equipment, and the data was processed using Flow Jo software. For this objective, 5.0 × 10^4 MCF-7 cells were seeded onto 12 well plates and incubated overnight. The media was aspirated the other day, and the treatment was continued for another 48 hours after adding the required concentrations of compound 2g and BG-45 to the aspirated media. Following the treatment, the sample wells were rinsed with ice-cold PBS, trypsinized, and collected as a cell pellet. After two ice-cold PBS washes, the pellet was fixed with a dropwise addition of 70% ice-cold ethanol, which was then gently vortexed to create a single-cell suspension. Overnight, the fixed cells were stored at −20 °C. The samples were then centrifuged, and the resulting cell pellet was resuspended in 500 μL of the staining solution made from 20% w/v RNase, 2% w/v PI, and roughly 0.1% v/v Triton X 100 solution in PBS. The dissolved samples were examined using flow cytometry in the BDAria™ III, BD Biosciences, after being incubated for 30 min at room temperature in the dark.

| SMILES | IC50 (4T1) [µM] | IC50 (MCF-7; Homo sapiens, MCF7, 48 h) [µM] | IC50 (PC-3) [µM] | IC50 (HEK-293) [µM] | IC50 (MCF-7) [µM] | selectivity for other cancer cell lines over HEK-293 (4T1; first value, fits 4T1 by ratio of Table 1 IC50) [fold] | total apoptotic percentage (Q2 and Q4) (MCF-7 cells [1]) [%] | Fluorescence intensity (DCFH-DA, ImageJ) (MCF-7 cells [2]) | relative fluorescence intensity compared to the control (MCF-7 cells [2]; MCF-7, IC50 dose) | nuclear morphology by DAPI and AO staining (MCF-7 cells [3]) | times more active than non-trifluoromethylated analogue 14 (MCF-7; MCF-7 IC50 compared) [times] | selectivity for MCF-7 cells over HEK-293 (MCF-7; ratio of IC50 values) [fold] | selectivity for other cancer cell lines over HEK-293 (PC-3; second value, fits PC-3 by ratio of Table 1 IC50) [fold] | cell population in G0/G1 phase (MCF-7 cells [4]) [%] | cell population in G2/M phase (MCF-7 cells [4]) [%] | cell population in S phase (MCF-7 cells [4]) [%] | melting point [°C] |
| --- | --- | --- | --- | --- | --- | --- | --- | --- | --- | --- | --- | --- | --- | --- | --- | --- | --- |
| COc1ccc(-c2cc(-c3cccs3)on2)cc1OC [Compound 14, 3-(3,4-dimethoxyphenyl)-5-(thiophen-2-yl)isoxazole, reference compound] | 48.39 ± 0.19 | 19.72 ± 0.16 | 30.21 ± 0.22 | 131.5 ± 0.13 | – | – | – | – | – | – | – | – | – | – | – | – | – |
| FC(F)(F)c1c(-c2ccccc2)noc1-c1cccs1 [Compound 2c] | 28.78 ± 0.19 | 8.19 ± 0.12 | 11.7 ± 0.16 | 98.76 ± 0.24 | – | – | – | – | – | – | – | – | – | – | – | – | – |
| FC(F)(F)c1c(-c2cccs2)noc1-c1c[nH]cc1-c1cccs1 [Compound 5, 3-(thiophen-2-yl)-5-(4-(thiophen-2-yl)-1H-pyrrol-3-yl)-4-(trifluoromethyl)isoxazole] | 14.96 ± 0.13 | 3.09 | 9.56 ± 0.18 | 84.86 ± 0.19 | 3.09 ± 0.11 | – | – | – | – | – | – | – | – | – | – | – | – |
| FC(F)(F)c1c(-c2cccc3ccccc23)noc1-c1cccs1 [Compound 2d] | 37.18 ± 0.22 | 10.6 ± 0.19 | 15.59 ± 0.14 | 111.8 ± 0.17 | – | – | – | – | – | – | – | – | – | – | – | – | – |
| COc1ccc(-c2noc(-c3cccs3)c2C(F)(F)F)cc1OC [Compound 2g, 3-(3,4-dimethoxyphenyl)-5-(thiophen-2-yl)-4-(trifluoromethyl)isoxazole] | 8.75 ± 0.09 | 2.64 | 7.16 ± 0.18 | 81.2 ± 0.17 | 2.63 ± 0.15 | 9.2 | 55.3 ± 0.9 | 31.63 | considerable increase | notable variation in cell shape and morphology | ~8 | 30.8 | 11.3 | 68.6 | 31.5 | 1.11 | – |
| FC(F)(F)c1c(-c2cccs2)noc1/C=C/c1cccs1 [Compound 4, (E)-3-(thiophen-2-yl)-5-(2-(thiophen-2-yl)vinyl)-4-(trifluoromethyl)isoxazole] | 44.36 ± 0.2 | 13.7 | 17.99 ± 0.13 | 122 ± 0.16 | 13.71 ± 0.13 | – | – | – | – | – | – | – | – | – | – | – | – |
| c1ccc(-c2cc(-c3cccs3)on2)cc1 [Compound 9, 3-phenyl-5-(thiophen-2-yl)isoxazole] | 36.24 ± 0.2 | 10 | 14.5 ± 0.17 | 109.3 ± 0.19 | 9.99 ± 0.1 | – | – | – | – | – | – | – | – | – | – | – | – |
| FC(F)(F)c1c(-c2cccs2)noc1-c1ccccc1 [Compound 2b] | 35.36 ± 0.19 | 9.76 | 13.6 ± 0.17 | 103.3 ± 0.17 | 9.76 ± 0.09 | – | – | – | – | – | – | – | – | – | – | – | 65 to 69 |
| FC(F)(F)c1c(-c2ccco2)noc1-c1cccs1 [Compound 2f] | 18.12 ± 0.15 | 5.32 | 10.3 ± 0.15 | 86.98 ± 0.23 | 5.32 ± 0.19 | – | – | – | – | – | – | – | – | – | – | – | – |
| FC(F)(F)c1c(-c2cccs2)noc1-c1ccco1 [Compound 2e] | 23.5 ± 0.21 | 5.48 | 11.6 ± 0.14 | 94.55 ± 0.2 | 5.48 ± 0.14 | – | – | – | – | – | – | – | – | – | – | – | 66 to 70 |
| FC(F)(F)c1c(-c2ccccc2)noc1-c1ccccc1 [Compound 2a] | 37.83 ± 0.2 | 11.3 | 16.14 ± 0.15 | 114.9 ± 0.15 | 11.3 ± 0.13 | – | – | – | – | – | – | – | – | – | – | – | 60 to 65 |
| Nc1ccccc1NC(=O)c1cnccn1 [BG-45, reference compound] | 59.14 ± 0.17 | 43.6 | 28.67 ± 0.14 | 144.56 ± 0.14 | 43.55 ± 0.18 | – | 16.4 ± 1.1 | 18.02 | – | – | – | – | – | 63.6 | 24.4 | 14.2 | – |
| c1ccc(-c2cc(-c3ccccc3)on2)cc1 [Compound 7, 3,5-diphenylisoxazole] | 41.58 ± 0.21 | 13 | 17.42 ± 0.17 | 118.7 ± 0.21 | 13.03 ± 0.13 | – | – | – | – | – | – | – | – | – | – | – | – |
